Legend:
[1] = Plasma concentration in dog at […], po after 24 hrs; type: ADME, organism-based, Canis lupus familiaris; set-up: dose 2.3 mg/kg, route oral
[2] = Oral bioavailability in dog at […] after 24 hrs; type: ADME, organism-based, Canis lupus familiaris; conditions: in vivo
[3] = AUC in dog at […], po after 24 hrs; type: ADME, organism-based, Canis lupus familiaris; set-up: time < 24 hr, dose 2.3 mg/kg, route oral; conditions: plasma
[4] = Plasma concentration in rat at 5 mg/kg, po after 24 hrs; type: ADME, organism-based; set-up: dose 5 mg/kg, route oral
[5] = Drug uptake in rat liver at 5 mg/kg, po after 24 hrs; type: ADME, organism-based; set-up: dose 5 mg/kg, route oral; conditions: read-out: Drug uptake
[6] = Plasma concentration in rat at 5 mg/kg, po after 4 hrs; type: ADME, organism-based; set-up: dose 5 mg/kg, route oral
[7] = Drug uptake in rat liver at 5 mg/kg, po after 4 hrs; type: ADME, organism-based; set-up: dose 5 mg/kg, route oral; conditions: read-out: Drug uptake
[8] = AUC in rat at 5 mg/kg, po after 4 hrs; type: ADME, organism-based; set-up: time < 4 hr, dose 5 mg/kg, route oral; conditions: plasma
[9] = Oral bioavailability in rat at 5 mg/kg after 24 hrs; type: ADME, organism-based; conditions: in vivo
[10] = AUC in rat at 5 mg/kg, po after 24 hrs; type: ADME, organism-based; set-up: time < 24 hr, dose 5 mg/kg, route oral; conditions: plasma
[11] = Permeability of the compound at PH 7.4 by PAMPA; type: ADME; conditions: read-out: permeability
[12] = Plasma concentration in dog at 3.5 mg/kg, po after 24 hrs; type: ADME, organism-based, Canis lupus familiaris; set-up: dose 3.5 mg/kg, route oral
[13] = Oral bioavailability in dog at 3.5 mg/kg after 24 hrs; type: ADME, organism-based, Canis lupus familiaris; conditions: in vivo
[14] = AUC in dog at 3.5 mg/kg, po after 24 hrs; type: ADME, organism-based, Canis lupus familiaris; set-up: time < 24 hr, dose 3.5 mg/kg, route oral; conditions: plasma

SMILES	concentration at 4 h [6] [nM]	concentration at 4 h [7] [nM]	AUC at 4 h [8] [µM·h]	Papp [11] [×10⁻⁶ cm/s]	other results
COC(=O)N[C@H](C(=O)N1CCC[C@H]1c1nc(-c2ccc(-c3ccc(-c4c[nH]c([C@@H]5CCCN5C(=O)[C@@H](NC(=O)OC)C(C)C)n4)cc3)cc2)c[nH]1)C(C)C	661	2240	2.18	49.6	concentration at 24 h [1]: 26 nM; bioavailability at 24 h [2]: 108%; AUC at 24 h [3]: 11 µM·h; concentration at 24 h [4]: 18 nM; concentration at 24 h [5]: 103 nM; bioavailability [9]: 50%; AUC at 24 h [10]: 4.8 µM·h
CC[C@H](NC(=O)OC)C(=O)N1CCC[C@H]1c1ncc(-c2ccc(-c3ccc(-c4cnc([C@@H]5CCCN5C(=O)[C@H](CC)NC(=O)OC)[nH]4)cc3)cc2)[nH]1				38.4	
COC(=O)N[C@H](C(=O)N1CCC[C@H]1c1ncc(-c2ccc(-c3ccc(-c4cnc([C@@H]5CCCN5C(=O)[C@@H](NC(=O)OC)[C@@H](C)OC)[nH]4)cc3)cc2)[nH]1)[C@@H](C)OC	121	453	0.472	27.5	
COC(=O)N[C@H](C(=O)N1CCC[C@H]1c1ncc(-c2ccc(-c3ccc(-c4cnc([C@@H]5CCCN5C(=O)[C@@H](NC(=O)OC)C5CC5)[nH]4)cc3)cc2)[nH]1)C1CC1				50	
O=C([C@@H](c1ccccc1)N1CCCC1)N1CCC[C@H]1c1ncc(-c2ccc(-c3ccc(-c4cnc([C@@H]5CCCN5C(=O)[C@@H](c5ccccc5)N5CCCC5)[nH]4)cc3)cc2)[nH]1	0.7	80	0.005	3.6	
O=C([C@@H](c1ccccc1)N1CCOCC1)N1CCC[C@H]1c1ncc(-c2ccc(-c3ccc(-c4cnc([C@@H]5CCCN5C(=O)[C@@H](c5ccccc5)N5CCOCC5)[nH]4)cc3)cc2)[nH]1	11	239	0.054	34.9	
CCN(CC)[C@@H](C(=O)N1CCC[C@H]1c1ncc(-c2ccc(-c3ccc(-c4cnc([C@@H]5CCCN5C(=O)[C@@H](c5ccccc5)N5CCCCC5)[nH]4)cc3)cc2)[nH]1)c1ccccc1				33.7	
COC(=O)N[C@@H](C(=O)N1CCC[C@H]1c1ncc(-c2ccc(-c3ccc(-c4cnc([C@@H]5CCCN5C(=O)CNC(C)=O)[nH]4)cc3)cc2)[nH]1)c1ccccc1				1.2	
COC(=O)N[C@@H](C)C(=O)N1CCC[C@H]1c1ncc(-c2ccc(-c3ccc(-c4cnc([C@@H]5CCCN5C(=O)[C@H](NC(=O)OC)c5ccccc5)[nH]4)cc3)cc2)[nH]1				36.3	
COC(=O)N[C@@H](C)C(=O)N1CCC[C@H]1c1ncc(-c2ccc(-c3ccc(-c4cnc([C@@H]5CCCN5C(=O)[C@H](C)NC(=O)OC)[nH]4)cc3)cc2)[nH]1	57	134	0.281	20.7	

More lines, main results first:

concentration at 4 h [6] [nM]	concentration at 4 h [7] [nM]	AUC at 4 h [8] [µM·h]	Papp [11] [×10⁻⁶ cm/s]	SMILES	other results
30	1830	0.049	25.3	CCN(CC)[C@@H](C(=O)N1CCC[C@H]1c1ncc(-c2ccc(-c3ccc(-c4cnc([C@@H]5CCCN5C(=O)[C@H](C)NC(=O)OC)[nH]4)cc3)cc2)[nH]1)c1ccccc1	concentration at 24 h [12]: 9 nM; bioavailability [13]: 66%; AUC at 24 h [14]: 1.2 µM·h; concentration at 24 h [5]: 178 nM; bioavailability [9]: 3.6%; AUC at 24 h [10]: 0.165 µM·h
	471		36.3	CC[C@H](NC(=O)OC)C(=O)N1CCC[C@H]1c1ncc(-c2ccc(-c3ccc(-c4cnc([C@@H]5CCCN5C(=O)[C@@H](c5ccccc5)N(CC)CC)[nH]4)cc3)cc2)[nH]1	concentration at 24 h [5]: 132 nM; bioavailability [9]: 4.3%
13	1230	0.034	70.6	CCN(CC)[C@@H](C(=O)N1CCC[C@H]1c1ncc(-c2ccc(-c3ccc(-c4cnc([C@@H]5CCCN5C(=O)[C@@H](NC(=O)OC)C(C)C)[nH]4)cc3)cc2)[nH]1)c1ccccc1	
			2.8	COC(=O)N[C@@H](C(=O)N1CCC[C@H]1c1ncc(-c2ccc(-c3ccc(-c4cnc([C@@H]5CCCN5C(=O)[C@@H](C)NC(C)=O)[nH]4)cc3)cc2)[nH]1)c1ccccc1	
			10	COC(=O)N[C@@H](C(=O)N1CCC[C@H]1c1ncc(-c2ccc(-c3ccc(-c4cnc([C@@H]5CCCN5C(=O)[C@H](C)NC(C)=O)[nH]4)cc3)cc2)[nH]1)c1ccccc1	

Reference: ChEMBL document CHEMBL3120093 (J Med Chem, 2014)
